Reference: patent US9120781B2, “Selective glycosidase inhibitors and uses thereof” (Simon Fraser University, priority 2010, dated 2015)

These compounds were tested against human O-GlcNAcase (Homo sapiens (Human), UniProt O60502) (assay: Assay for determination of KI values for inhibition of O-GlcNAcase activity (fluorescence-based hOGA)). Conditions: purified human O-GlcNAcase, 4-Methylumbelliferyl N-acetyl-β-D-glucosaminide substrate, pH 7.0, Cheng-Prusoff.
Type: biochemical
Procedure: Assay for Determination of KI Values for Inhibition of O-GlcNAcase Activity
Experimental Procedure for Kinetic Analyses:
Enzymatic reactions are carried out in a reaction containing 50 mM NaH2PO4, 100 mM NaCl and 0.1% BSA (pH 7.0) using 2 mM 4-Methylumbelliferyl N-acetyl-β-D-glucosaminide dihydrate (Sigma M2133) dissolved in ddH2O, as a substrate. The amount of purified human O-GlcNAcase enzyme used in the reaction is 0.7 nM. Test compound of varying concentrations is added to the enzyme prior to initiation of the reaction. The reaction is performed at room temperature in a 96-well plate and is initiated with the addition of substrate. The production of fluorescent product is measured every 60 sec for 45 min with a Tecan Infinite M200 plate-reader with excitation at 355 nm and emission detected at […], with 4-Methylumbelliferone (Sigma M1381) used to produce a standard curve. The slope of product production is determined for each concentration of compound tested and plotted, using standard curve fitting algorithms for sigmoidal dose response curves. The values for a four parameter logistic curve fit of the data are determined.

Sequence of human O-GlcNAcase (O60502 whole entry): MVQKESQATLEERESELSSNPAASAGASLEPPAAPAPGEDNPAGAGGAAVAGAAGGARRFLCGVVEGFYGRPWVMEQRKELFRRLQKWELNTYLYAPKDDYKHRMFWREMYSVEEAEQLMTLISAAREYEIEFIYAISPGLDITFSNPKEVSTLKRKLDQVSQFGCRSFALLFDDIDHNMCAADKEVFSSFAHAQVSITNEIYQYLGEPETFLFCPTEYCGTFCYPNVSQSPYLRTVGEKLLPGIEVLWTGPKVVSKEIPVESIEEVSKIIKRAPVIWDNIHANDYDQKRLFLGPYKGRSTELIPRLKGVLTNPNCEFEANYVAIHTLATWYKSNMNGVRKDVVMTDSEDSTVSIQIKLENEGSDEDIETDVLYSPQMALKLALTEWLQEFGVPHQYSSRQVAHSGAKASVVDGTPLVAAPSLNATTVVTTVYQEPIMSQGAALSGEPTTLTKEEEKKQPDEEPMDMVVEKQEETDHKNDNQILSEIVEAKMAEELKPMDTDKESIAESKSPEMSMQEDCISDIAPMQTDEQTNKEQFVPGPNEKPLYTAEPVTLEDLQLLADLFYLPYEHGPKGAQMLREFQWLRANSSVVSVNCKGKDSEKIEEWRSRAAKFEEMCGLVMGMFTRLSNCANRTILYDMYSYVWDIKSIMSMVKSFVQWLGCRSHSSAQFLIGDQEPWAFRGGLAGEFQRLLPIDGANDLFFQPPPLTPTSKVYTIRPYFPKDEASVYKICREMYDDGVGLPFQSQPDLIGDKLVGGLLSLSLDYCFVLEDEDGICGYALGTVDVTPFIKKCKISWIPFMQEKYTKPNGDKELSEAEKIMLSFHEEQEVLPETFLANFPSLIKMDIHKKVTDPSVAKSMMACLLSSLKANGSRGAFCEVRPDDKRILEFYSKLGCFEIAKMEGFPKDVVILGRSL

SMILES	Ki [pM]
CCNC1=N[C@@H]2[C@@H](O)[C@H](O)[C@@H](CO)C[C@@H]2O1 [Example 9, (3aR,4R,5R,6R,7aS)-2-(ethylamino)-6-(hydroxymethyl)-3a,4,5,6,7,7a-hexahydrobenzo[d]oxazole-4,5-diol]	600
OC[C@H]1C[C@@H]2OC(N3CCC3)=N[C@@H]2[C@@H](O)[C@@H]1O [Example 18, (3aR,4R,5R,6R,7aS)-2-(azetidin-1-yl)-6-(hydroxymethyl)-3a,4,5,6,7,7a-hexahydrobenzo[d]oxazole-4,5-diol]	130
CN(C)C1=N[C@@H]2[C@@H](O)[C@H](O)[C@@H](CO)C[C@@H]2S1 [Example 22, (3aR,4R,5R,6R,7aS)-2-(dimethylamino)-6-(hydroxymethyl)-3a,4,5,6,7,7a-hexahydrobenzo[d]thiazole-4,5-diol]	500
CN(C)C1=N[C@H]2[C@H](O)[C@@H](O)[C@H](CO)C[C@H]2S1 [Example 23, (3aS,4S,5S,6S,7aR)-2-(dimethylamino)-6-(hydroxymethyl)-3a,4,5,6,7,7a-hexahydrobenzo[d]thiazole-4,5-diol]	484000
CNC1=N[C@@H]2[C@@H](O)[C@H](O)[C@@H](CO)C[C@@H]2S1 [Example 26, (3aR,4R,5R,6R,7aS)-2-(methylamino)-6-(hydroxymethyl)-3a,4,5,6,7,7a-hexahydrobenzo[d]thiazole-4,5-diol]	200
OC[C@H]1C[C@@H]2OC(NCCF)=N[C@@H]2[C@@H](O)[C@@H]1O [Example 32, (3aR,4R,5R,6R,7aS)-2-((2-fluoroethyl)amino)-6-(hydroxymethyl)-3a,4,5,6,7,7a-hexahydrobenzo[d]oxazole-4,5-diol 2,2,2-trifluoroacetate]	2500
